Laboratory results reported in ChEMBL document CHEMBL1201862, “PubChem BioAssay data set” (2004).
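Cells were grown in 96-well plates and exposed to each compound for 48 hours at five concentrations; endpoints were interpolated linearly between bracketing concentrations, or set to the highest concentration if not reached. GI50: concentration for 50% inhibition of growth.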 Activity calls are given as the source filed them. No stated cut-off is given here; in the data, active = GI50 up to about 1.1 µM and inactive = higher.

Columns and labels:
Test in all cases: growth of human tumour cells (NCI), 48 h
SK-OV-3 = test system: SK-OV-3
A498 = test system: A498
NCI-H460 = test system: NCI-H460
NCI-H522 = test system: NCI-H522
SW-620 = test system: SW-620
U-251 = test system: U-251
HT-29 = test system: HT-29
CCRF-CEM = test system: CCRF-CEM
OVCAR-3 = test system: OVCAR-3
NCI-H23 = test system: NCI-H23
SN12C = test system: SN12C
HCT-15 = test system: HCT-15
SF-295 = test system: SF-295
SNB-75 = test system: SNB-75
HCC 2998 = test system: HCC 2998
EKVX = test system: EKVX
MDA-N = test system: MDA-N
Hs-578T = test system: Hs-578T
MCF7 = test system: MCF7

Row | Compound | GI50 (SK-OV-3) | GI50 (A498) | GI50 (NCI-H460) | GI50 (NCI-H522) | GI50 (SW-620) | GI50 (U-251) | GI50 (HT-29) | GI50 (CCRF-CEM) | GI50 (OVCAR-3) | GI50 (NCI-H23) | GI50 (SN12C) | GI50 (HCT-15) [µM] | GI50 (SF-295) | GI50 (SNB-75) | GI50 (HCC 2998) | GI50 (EKVX) | GI50 (MDA-N) | GI50 (Hs-578T) | GI50 (MCF7)
1 | CC(C)(C)C(=O)OC12/C(=N/O)CCCCCC1c1ccccc12 (configuration not stated) | 18.7 µM (inactive) | 16.9 µM (inactive) | 17.3 µM (inactive) | 17.8 µM (inactive) | 17.6 µM (inactive) | 17.7 µM (inactive) | 13.3 µM (inactive) | 23.4 µM (inactive) | 17.4 µM (inactive) | 16.6 µM (inactive) | 19 µM (inactive) | 16.2 | 15.6 µM (inactive) | 14.5 µM (inactive) | > 100 µM (inactive) | – | – | – | –
2 | Cc1ccc(C2=Nc3ccccc3SC(c3cccc4c3OCO4)C2)cc1 (configuration not stated) | 35.8 µM (inactive) | 14.7 µM (inactive) | 31.3 µM (inactive) | 13.9 µM (inactive) | 19.1 µM (inactive) | – | 16.9 µM (inactive) | 15.7 µM (inactive) | 14.8 µM (inactive) | 16.7 µM (inactive) | 19.5 µM (inactive) | 21.1 | 18.7 µM (inactive) | 7.94 µM (inactive) | 20.9 µM (inactive) | 21.1 µM (inactive) | – | – | –
3 | CC(=O)ONC(C(=O)C(C)(C)C)C(=O)C(C)(C)C | > 100 µM (inactive) | > 100 µM (inactive) | > 100 µM (inactive) | > 100 µM (inactive) | > 100 µM (inactive) | > 100 µM (inactive) | > 100 µM (inactive) | > 100 µM (inactive) | > 100 µM (inactive) | > 100 µM (inactive) | > 100 µM (inactive) | > 100 | > 100 µM (inactive) | > 100 µM (inactive) | > 100 µM (inactive) | > 100 µM (inactive) | > 100 µM (inactive) | > 100 µM (inactive) | > 100 µM (inactive)
4 | c1ccc(-c2cc(-c3cccs3)c(-c3cccs3)s2)cc1 | > 100 µM (inactive) | 80.2 µM (inactive) | 56.8 µM (inactive) | 26.5 µM (inactive) | 33.7 µM (inactive) | 78.7 µM (inactive) | 55.7 µM (inactive) | 23.7 µM (inactive) | 56.2 µM (inactive) | 19.1 µM (inactive) | 85.9 µM (inactive) | 22.8 | 80 µM (inactive) | 20 µM (inactive) | 25 µM (inactive) | 81.8 µM (inactive) | 14.6 µM (inactive) | 70 µM (inactive) | 16.6 µM (inactive)
5 | Cc1cccc(C)c1NC(=O)CCc1n[nH]c(=S)o1 | > 100 µM (inactive) | > 100 µM (inactive) | > 100 µM (inactive) | > 100 µM (inactive) | 18.1 µM (inactive) | > 100 µM (inactive) | > 100 µM (inactive) | > 100 µM (inactive) | > 100 µM (inactive) | > 100 µM (inactive) | > 100 µM (inactive) | 78.5 | > 100 µM (inactive) | > 100 µM (inactive) | > 100 µM (inactive) | > 100 µM (inactive) | – | – | –
6 | CCOC(=O)C1=C(O)C(=O)c2ccsc2C1=O | > 100 µM (inactive) | > 100 µM (inactive) | > 100 µM (inactive) | 69.3 µM (inactive) | > 100 µM (inactive) | > 100 µM (inactive) | > 100 µM (inactive) | > 100 µM (inactive) | > 100 µM (inactive) | > 100 µM (inactive) | > 100 µM (inactive) | > 100 | > 100 µM (inactive) | > 100 µM (inactive) | > 100 µM (inactive) | > 100 µM (inactive) | – | – | –
7 | Cc1cc(NS(=O)(=O)c2ccc(NC(=O)c3ccc(Cl)c4c(Nc5ccc(S(=O)(=O)N=C(N)N)cc5)c5ccccc5nc34)cc2)no1 | > 100 µM (inactive) | > 100 µM (inactive) | > 100 µM (inactive) | 20 µM (inactive) | – | 18 µM (inactive) | 45.8 µM (inactive) | 28.3 µM (inactive) | 27 µM (inactive) | > 100 µM (inactive) | 32.3 µM (inactive) | > 100 | > 100 µM (inactive) | 29.7 µM (inactive) | 22.3 µM (inactive) | 95.1 µM (inactive) | – | – | –
8 | COc1ccc2[nH]cc(CCNC(C)=O)c2c1 [MELATONIN] | > 100 µM (inactive) | > 100 µM (inactive) | > 100 µM (inactive) | > 100 µM (inactive) | 8.17 µM (inactive) | > 100 µM (inactive) | 69 µM (inactive) | > 100 µM (inactive) | > 100 µM (inactive) | > 100 µM (inactive) | > 100 µM (inactive) | 77.4 | > 100 µM (inactive) | > 100 µM (inactive) | – | > 100 µM (inactive) | – | – | –
9 | CC(=O)OC1CC2C(C)(C)C(=O)C=C[C@]2(C)C2CCC3(C)C(c4ccoc4)C(=O)C4OC43[C@]12C (some centres not stated) | 13.2 µM (inactive) | 17.6 µM (inactive) | 17.1 µM (inactive) | 12.9 µM (inactive) | 19.5 µM (inactive) | 18.8 µM (inactive) | 16.3 µM (inactive) | 20.8 µM (inactive) | 18.3 µM (inactive) | 15.3 µM (inactive) | 15.2 µM (inactive) | 14.4 | 16.9 µM (inactive) | 22.4 µM (inactive) | 16.7 µM (inactive) | 40.5 µM (inactive) | – | – | –
10 | O=C1c2ccccc2C(=O)C2NC(CCCCCSSCCCCCC3=NC4C(=O)c5ccccc5C(=O)C4N3)=NC12 (configuration not stated) | 50.8 µM (inactive) | 23.7 µM (inactive) | > 100 µM (inactive) | 15 µM (inactive) | 90.8 µM (inactive) | 17.6 µM (inactive) | > 100 µM (inactive) | > 100 µM (inactive) | > 100 µM (inactive) | 40.2 µM (inactive) | – | 40.6 | 4.57 µM (inactive) | – | – | > 100 µM (inactive) | – | 25.7 µM (inactive) | > 100 µM (inactive)
11 | COc1ccc(C(=O)/C=C/c2ccc(OCCCOc3ccc(/C=C/C(=O)c4ccc(OC)cc4)cc3)cc2)cc1 | > 100 µM (inactive) | – | > 100 µM (inactive) | – | > 100 µM (inactive) | > 100 µM (inactive) | 56.1 µM (inactive) | > 100 µM (inactive) | – | – | > 100 µM (inactive) | > 100 | > 100 µM (inactive) | 45.4 µM (inactive) | > 100 µM (inactive) | > 100 µM (inactive) | > 100 µM (inactive) | > 100 µM (inactive) | > 100 µM (inactive)
12 | c1coc(-c2nccc3c2[nH]c2ccccc23)c1 | > 100 µM (inactive) | > 100 µM (inactive) | > 100 µM (inactive) | > 100 µM (inactive) | > 100 µM (inactive) | > 100 µM (inactive) | > 100 µM (inactive) | > 100 µM (inactive) | > 100 µM (inactive) | > 100 µM (inactive) | > 100 µM (inactive) | > 100 | > 100 µM (inactive) | – | > 100 µM (inactive) | > 100 µM (inactive) | > 100 µM (inactive) | > 100 µM (inactive) | > 100 µM (inactive)
13 | N#C/C(C(=S)NCc1ccccc1)=C(/N)N1CCCC1 | > 100 µM (inactive) | 35.3 µM (inactive) | > 100 µM (inactive) | > 100 µM (inactive) | > 100 µM (inactive) | > 100 µM (inactive) | > 100 µM (inactive) | > 100 µM (inactive) | > 100 µM (inactive) | > 100 µM (inactive) | > 100 µM (inactive) | > 100 | > 100 µM (inactive) | – | > 100 µM (inactive) | > 100 µM (inactive) | > 100 µM (inactive) | > 100 µM (inactive) | –
14 | COc1cccc(-c2cc(O)c3ccccc3n2)c1 | 5.38 µM (inactive) | 11.4 µM (inactive) | 4.59 µM (inactive) | 3.06 µM (inactive) | 3.28 µM (inactive) | 9.53 µM (inactive) | 3.82 µM (inactive) | 4.56 µM (inactive) | 4.2 µM (inactive) | 7.52 µM (inactive) | 6.46 µM (inactive) | 4.7 | 2.81 µM (inactive) | 4.98 µM (inactive) | 6.58 µM (inactive) | 52.2 µM (inactive) | – | – | –
15 | CC(=O)OC1C(CCl)OC(N=[N+]=[N-])C(OC(C)=O)C1OC(C)=O (configuration not stated) | > 100 µM (inactive) | > 100 µM (inactive) | > 100 µM (inactive) | > 100 µM (inactive) | > 100 µM (inactive) | > 100 µM (inactive) | > 100 µM (inactive) | > 100 µM (inactive) | > 100 µM (inactive) | > 100 µM (inactive) | > 100 µM (inactive) | > 100 | > 100 µM (inactive) | > 100 µM (inactive) | > 100 µM (inactive) | > 100 µM (inactive) | – | – | –
16 | COC(=O)CC(C)(N[S+]([O-])c1ccc(C)cc1)c1ccccc1 (configuration not stated) | > 100 µM (inactive) | > 100 µM (inactive) | > 100 µM (inactive) | > 100 µM (inactive) | > 100 µM (inactive) | > 100 µM (inactive) | > 100 µM (inactive) | – | > 100 µM (inactive) | > 100 µM (inactive) | > 100 µM (inactive) | > 100 | > 100 µM (inactive) | – | > 100 µM (inactive) | > 100 µM (inactive) | > 100 µM (inactive) | > 100 µM (inactive) | > 100 µM (inactive)
17 | Cn1cc(S(=O)(=O)NC(=O)Nc2ccc(Cl)cc2)c(=O)c2ccc(F)cc21 | > 100 µM (inactive) | > 100 µM (inactive) | > 100 µM (inactive) | 32 µM (inactive) | > 100 µM (inactive) | > 100 µM (inactive) | > 100 µM (inactive) | > 100 µM (inactive) | – | > 100 µM (inactive) | > 100 µM (inactive) | > 100 | > 100 µM (inactive) | > 100 µM (inactive) | > 100 µM (inactive) | > 100 µM (inactive) | 64.3 µM (inactive) | > 100 µM (inactive) | –
